According to US6498137B1, “Aerosol cleaning composition containing an organic acid and a spore forming microbial composition” (Spartan Chemical Company, Inc., priority 2001, dated 2002):

Legend:
[1] = tested on: test organism; assay: Nisin in letheen broth sub-culture: effect on the test organism; assay type: cell-based; conditions: 0.1 μg/ml nisin in letheen broth
Procedure: (§1) Nisin is not an ingredient in the product formulation. It is a modification to the AOAC test method. Specifically, when setting up the test sub-culture 0.1 μg/ml of nisin is added to the letheen broth.

[2] = tested on: Bacillus spores; assay: Nisin in letheen broth sub-culture: out-growth of Bacillus spores; assay type: cell-based; conditions: 0.1 μg/ml nisin in letheen broth
Procedure: as §1

Substance: nisin
- bacteriostatic effect on the test organism [1]: no bacteriostatic effect
- out-growth of Bacillus spores transferred on the carrier [2]: inhibits out-growth
